In general, EC50 refers to the concentration giving half of the maximal effect.

Experimental findings from US12459941B2, “Tricyclic IRAK inhibitors” (Rigel Pharmaceuticals, Inc., priority 2022, dated 2025) are described below.

Assay [1] relates to TNFa. In words: TNFa ELISA, dendritic cells, Gardiquimod stimulated. It counts as cell-based. The conditions noted are these: Homo sapiens, Dendritic cell, 10 pt curve. Background: In an ELISA, binding on a coated surface is turned into a signal by an enzyme label.
The test system of assay [2] is TNFa. In words: TNFa ELISA, PBMC, Resiquimod (R848) stimulated. It is filed as cell-based. As to conditions: 10 pt curve.
The target of assay [3] is T1, IRAK4 (Homo sapiens, UniProt Q9NWZ3).
T1 construct: purchased Signalchem I12-10G-20
T1 sequence (Q9NWZ3 1-460): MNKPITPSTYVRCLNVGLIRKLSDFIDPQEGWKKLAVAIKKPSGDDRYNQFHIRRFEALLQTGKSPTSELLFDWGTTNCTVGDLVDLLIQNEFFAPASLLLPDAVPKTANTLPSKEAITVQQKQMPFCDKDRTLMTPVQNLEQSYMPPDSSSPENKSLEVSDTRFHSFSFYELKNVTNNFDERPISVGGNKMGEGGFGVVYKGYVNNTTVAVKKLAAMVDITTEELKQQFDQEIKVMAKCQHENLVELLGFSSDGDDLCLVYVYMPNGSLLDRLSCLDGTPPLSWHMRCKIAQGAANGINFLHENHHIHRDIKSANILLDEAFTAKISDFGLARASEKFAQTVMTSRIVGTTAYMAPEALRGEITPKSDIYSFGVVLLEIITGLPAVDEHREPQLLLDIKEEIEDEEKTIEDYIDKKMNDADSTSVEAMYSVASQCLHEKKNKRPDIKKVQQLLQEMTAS
In words: IRAK4 ADP-Glo assay. It counts as biochemical. As to conditions: 8 pt curve; read-out: IRAK4 ADP-Glo Kinase, 8 pt. The procedure:
IRAK4 Kinase Enzyme (Signalchem, I12-10G-20); 0.1M DTT (Signalchem, D86-09B); MBP Substrate (Signalchem, M42-51N); ADP Glo (Promega, V9101); 1M MgCl2 (Teknova, M03304); 1M Tris-HCl pH7.4 (Teknova, T1074); BSA (Sigma (A3059); Distilled H2O
Wallac Victor2 1420 Multilabel Counter
The ADP-Glo™ reagents were thawed at ambient temperature. The Kinase Detection Reagent was prepared by mixing kinase detection buffer with the lyophilized kinase detection substrate, and set aside.
A stock volume of 5× Reaction Kinase Buffer was made with a final concentration of 100 mM MgCl2, 200 mM Tris-HCl, and 0.5 mg/ml of BSA, in distilled H2O with a final pH7.4. A 2× working stock volume of Reaction Kinase Buffer was made containing a final concentration of […].
The components of IRAK4 Enzyme were thawed on ice. Diluted IRAK4 in 1× Kinase Reaction Buffer (diluted from 2× buffer) was prepared at […]. A […] working stock ATP Assay Solution was prepared in 1× Kinase Reaction Buffer (diluted from 2× buffer).
The compound was diluted in DMSO from 250 µM in 4-fold series dilutions for 8 points. Then diluted 1:5 in 2× Reaction Buffer in a 96 well plate. 1.01 was transferred to a 384 well plate in duplicate. […] 1 μl of 1 mg/ml stock solution of MBP substrate was added NOTE: MBP can be combined with ATP mix with equal volume and then added at 2 d/well. Final reaction volume was 5 μl.
The plate was centrifuged and the reaction mixture was incubated at room temperature for 60 minutes or at 30° C. for 30 minutes.
The reaction was terminated and the remaining ATP was depleted by adding 5 μl of ADP-Glo™ Reagent. The 384-well plate was centrifuged and then the reaction mixture was incubated for another 40 minutes at ambient temperature.
10 μl of the Kinase Detection Reagent was added. The plate was centrifuged and then the reaction mixture was incubated for another 30 minutes at ambient temperature.
The 384-well reaction plate was read using the WALLAC plate reader (Luminescence 0.1s).
In general terms: ADP-Glo turns the ADP formed in a reaction into a luminescent signal.

Assay [4] concerns the target IRAK1 (Homo sapiens, UniProt P51617). In words: IRAK1 ADP-Glo Kinase assay. It is filed as biochemical. As to conditions: 8 pt curve.

IRAK1, sequence (P51617 whole entry): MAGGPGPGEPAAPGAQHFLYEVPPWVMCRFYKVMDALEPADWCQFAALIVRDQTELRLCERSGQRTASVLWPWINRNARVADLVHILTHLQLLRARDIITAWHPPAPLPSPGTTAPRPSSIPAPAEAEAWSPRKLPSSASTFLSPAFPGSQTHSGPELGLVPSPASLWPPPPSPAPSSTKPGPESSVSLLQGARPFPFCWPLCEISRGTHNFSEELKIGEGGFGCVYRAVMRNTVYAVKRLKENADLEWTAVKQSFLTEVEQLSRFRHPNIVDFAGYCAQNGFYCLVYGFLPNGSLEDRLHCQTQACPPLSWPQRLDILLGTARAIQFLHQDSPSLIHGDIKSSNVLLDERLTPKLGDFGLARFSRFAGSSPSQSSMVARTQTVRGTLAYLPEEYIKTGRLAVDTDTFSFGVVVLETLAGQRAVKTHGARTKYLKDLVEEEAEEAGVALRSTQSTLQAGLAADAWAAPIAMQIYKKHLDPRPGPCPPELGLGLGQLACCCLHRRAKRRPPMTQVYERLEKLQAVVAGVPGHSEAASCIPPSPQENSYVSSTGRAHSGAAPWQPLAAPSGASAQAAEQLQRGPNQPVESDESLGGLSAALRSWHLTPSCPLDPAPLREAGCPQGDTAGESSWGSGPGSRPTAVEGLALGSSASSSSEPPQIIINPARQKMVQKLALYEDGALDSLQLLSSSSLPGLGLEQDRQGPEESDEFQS

On to `O=C1CC[C@@H](COc2nccc3cc4c(=O)[nH]ccc4cc23)N1` [I-5, (S)-6-((5-oxopyrrolidin-2-yl)methoxy)pyrido[3,4-g]isoquinolin-1(2H)-one], for which the figures for the concentration giving a half-maximal response (EC50) in assay [1] and in assay [2] were 5680 nM and 4390 nM, respectively. Moreover, the IC50 in assay [3] was found to be 160 nM.

Turning to `O=C1CC[C@@H](COc2nccc3cc4c(=O)[nH]cc(I)c4cc23)N1` [I-6, (S)-4-iodo-6-((5-oxopyrrolidin-2-yl)methoxy)pyrido[3,4-g]isoquinolin-1(2H)-one], the EC50 in assay [1] was 45.8 nM; in assay [2], 32.2 nM. Moreover, in assay [3], the IC50 stood at 3.1 nM.

For the compound `C=Cc1c[nH]c(=O)c2cc3ccnc(OC[C@@H]4CCC(=O)N4)c3cc12` [I-7, (S)-6-((5-oxopyrrolidin-2-yl)methoxy)-4-vinylpyrido[3,4-g]isoquinolin-1(2H)-one], the EC50 came out at 215 nM in assay [1] and 192 nM in assay [2]. The IC50 turned out to be 4.8 nM in assay [3] and 4280 nM in assay [4].

Consider `CCc1c[nH]c(=O)c2cc3ccnc(OC[C@@H]4CCC(=O)N4)c3cc12` [I-8, (S)-4-ethyl-6-((5-oxopyrrolidin-2-yl)methoxy)pyrido[3,4-g]isoquinolin-1(2H)-one], for which the 50% effective concentration (EC50) stood at 148 nM in assay [1] and 112 nM in assay [2]. Besides, the results for the IC50 in assay [3] and in assay [4] were 8.5 nM and 7230 nM, respectively.

As for `C=CCc1c[nH]c(=O)c2cc3ccnc(OC[C@@H]4CCC(=O)N4)c3cc12` [I-9, (S)-4-allyl-6-((5-oxopyrrolidin-2-yl)methoxy)pyrido[3,4-g]isoquinolin-1(2H)-one], the half-maximal effective concentration (EC50) turned out to be 419 nM in assay [1] and 376 nM in assay [2]. The IC50 in assay [3] is 14.5 nM; in assay [4] it was 6860 nM.

For `CCCc1c[nH]c(=O)c2cc3ccnc(OC[C@@H]4CCC(=O)N4)c3cc12` [I-10, (S)-6-((5-oxopyrrolidin-2-yl)methoxy)-4-propylpyrido[3,4-g]isoquinolin-1(2H)-one], the EC50 in assay [1] amounted to 613 nM; in assay [2], 369 nM. In addition, the IC50 in assay [3] was 74.2 nM; in assay [4] it was 11100 nM.

For `C=C(C)c1c[nH]c(=O)c2cc3ccnc(OC[C@@H]4CCC(=O)N4)c3cc12` [I-11, (S)-6-((5-oxopyrrolidin-2-yl)methoxy)-4-(prop-1-en-2-yl)pyrido[3,4-g]isoquinolin-1(2H)-one], the response in assay [2] was half-maximal at 75 nM (EC50). The IC50 came to 7.8 nM in assay [3] and 6490 nM in assay [4].

Take `O=C1CC[C@@H](COc2nccc3cc4c(=O)[nH]cc(C5CCC5)c4cc23)N1` [I-12, (S)-4-cyclobutyl-6-((5-oxopyrrolidin-2-yl)methoxy)pyrido[3,4-g]isoquinolin-1(2H)-one]: the EC50 was 11700 nM in assay [1] and 203 nM in assay [2]. For the same compound, the IC50 in assay [3] turned out to be 39.6 nM; in assay [4] it was 7860 nM.

For `N#Cc1c[nH]c(=O)c2cc3ccnc(OC[C@@H]4CCC(=O)N4)c3cc12` [I-16, (S)-1-oxo-6-((5-oxopyrrolidin-2-yl)methoxy)-1,2-dihydropyrido[3,4-g]isoquinoline-4-carbonitrile], the EC50 in assay [2] came out at 1660 nM. The values for the IC50 in assay [3] and in assay [4] were 22.2 nM and 10300 nM, respectively.

As for `C#Cc1c[nH]c(=O)c2cc3ccnc(OC[C@@H]4CCC(=O)N4)c3cc12` [I-18, (S)-4-ethynyl-6-((5-oxopyrrolidin-2-yl)methoxy)pyrido[3,4-g]isoquinolin-1(2H)-one], the values for the half-maximal effective concentration (EC50) in assay [1] and in assay [2] were 358 nM and 337 nM, respectively. The IC50 in assay [3] is 14.4 nM; in assay [4] it was 12000 nM.

With `O=C1CC[C@@H](COc2nccc3cc4c(=O)[nH]cc(CC(F)(F)F)c4cc23)N1` [I-19, (S)-6-((5-oxopyrrolidin-2-yl)methoxy)-4-(2,2,2-trifluoroethyl)pyrido[3,4-g]isoquinolin-1(2H)-one], the results for the EC50 in assay [1] and in assay [2] were 177 nM and 208 nM, respectively. The IC50 came out at 105 nM in assay [3] and 14800 nM in assay [4].

Consider `O=C1CC[C@@H](COc2nccc3cc4c(=O)[nH]cc(C5CNC5)c4cc23)N1` [I-23, (S)-4-(azetidin-3-yl)-6-((5-oxopyrrolidin-2-yl)methoxy)pyrido[3,4-g]isoquinolin-1(2H)-one], for which, in assay [3], the IC50 stood at 2400 nM.

The compound `CC(C)(N)c1c[nH]c(=O)c2cc3ccnc(OC[C@@H]4CCC(=O)N4)c3cc12` [I-26, (S)-4-(2-aminopropan-2-yl)-6-((5-oxopyrrolidin-2-yl)methoxy)pyrido[3,4-g]isoquinolin-1(2H)-one] had an EC50 in assay [2] of 1780 nM. Also, the IC50 in assay [3] is 5350 nM.

Turning to `NC(=O)c1c[nH]c(=O)c2cc3ccnc(OC[C@@H]4CCC(=O)N4)c3cc12` [I-27, (S)-1-oxo-6-((5-oxopyrrolidin-2-yl)methoxy)-1,2-dihydropyrido[3,4-g]isoquinoline-4-carboxamide], in assay [3], the IC50 was 988 nM.

`CC(=O)c1c[nH]c(=O)c2cc3ccnc(OC[C@@H]4CCC(=O)N4)c3cc12` [I-28, (S)-4-acetyl-6-((5-oxopyrrolidin-2-yl)methoxy)pyrido[3,4-g]isoquinolin-1(2H)-one] showed an EC50 in assay [2] of 5650 nM. Also, the IC50 in assay [3] is 27.3 nM.

The compound `O=C1CC[C@@H](COc2nccc3cc4c(=O)[nH]cc(-c5cn[nH]c5)c4cc23)N1` [I-33, (S)-6-((5-oxopyrrolidin-2-yl)methoxy)-4-(1H-pyrazol-4-yl)pyrido[3,4-g]isoquinolin-1(2H)-one] returned a 50% effective concentration (EC50) in assay [1] of 25600 nM. Also, the IC50 in assay [3] amounted to 28 nM; in assay [4] it was 3010 nM.

For `CC(O)c1c[nH]c(=O)c2cc3ccnc(OC[C@@H]4CCC(=O)N4)c3cc12` (stereo partly drawn) [I-36, 4-(1-hydroxyethyl)-6-(((S)-5-oxopyrrolidin-2-yl)methoxy)pyrido[3,4-g]isoquinolin-1(2H)-one], the 50% effective concentration (EC50) was found to be 63800 nM in assay [1] and 1030 nM in assay [2]. The IC50 was found to be 62.7 nM in assay [3] and 11300 nM in assay [4].

For the compound `C#CC(C)(O)c1c[nH]c(=O)c2cc3ccnc(OC[C@@H]4CCC(=O)N4)c3cc12` (stereo partly drawn) [I-37, 4-(2-hydroxybut-3-yn-2-yl)-6-(((S)-5-oxopyrrolidin-2-yl)methoxy)pyrido[3,4-g]isoquinolin-1(2H)-one], in assay [1], the concentration giving a half-maximal response (EC50) was determined as 44000 nM. Besides, the IC50 in assay [3] worked out at 1210 nM; in assay [4], 11000 nM.

`NC(=O)Cc1c[nH]c(=O)c2cc3ccnc(OC[C@@H]4CCC(=O)N4)c3cc12` [I-41, (S)-2-(1-oxo-6-((5-oxopyrrolidin-2-yl)methoxy)-1,2-dihydropyrido[3,4-g]isoquinolin-4-yl)acetamide]: in assay [3], the IC50 came to 2540 nM.

Compound `CS(=O)(=O)c1c[nH]c(=O)c2cc3ccnc(OC[C@@H]4CCC(=O)N4)c3cc12` [I-48, (S)-4-(methylsulfonyl)-6-((5-oxopyrrolidin-2-yl)methoxy)pyrido[3,4-g]isoquinolin-1(2H)-one] registered an EC50 in assay [2] of 10100 nM. Besides, in assay [3], the IC50 was 13800 nM.

As for `CC(C)(O)C#Cc1c[nH]c(=O)c2cc3ccnc(OC[C@@H]4CCC(=O)N4)c3cc12` [I-49, (S)-4-(3-hydroxy-3-methylbut-1-yn-1-yl)-6-((5-oxopyrrolidin-2-yl)methoxy)pyrido[3,4-g]isoquinolin-1(2H)-one], the concentration giving a half-maximal response (EC50) in assay [2] was found to be 1440 nM. In other words, the single-digit micromolar range.

Take `CC(C)Cc1c[nH]c(=O)c2cc3ccnc(OC[C@@H]4CCC(=O)N4)c3cc12` [I-50, (S)-4-isobutyl-6-((5-oxopyrrolidin-2-yl)methoxy)pyrido[3,4-g]isoquinolin-1(2H)-one]: in assay [3], the IC50 was determined as 2190 nM.

Turning to `CC[C@@H]1[C@H](F)C(=O)N[C@@H]1COc1nccc2cc3c(=O)[nH]cc(C(C)C)c3cc12` [I-51, 6-(((2S,3S,4S)-3-ethyl-4-fluoro-5-oxopyrrolidin-2-yl)methoxy)-4-isopropylpyrido[3,4-g]isoquinolin-1(2H)-one], the midpoint of the response in assay [2], the EC50, lay at 4 nM. The IC50 was found to be 10 nM in assay [3] and 77.4 nM in assay [4].
